Here are results for five molecules from US8987486B2, “Trans-2-decenoic acid derivative and pharmaceutical agent containing the same” (Nagoya Industrial Science Research Institute, priority 2010, dated 2015).

One experiment concerns MAP kinase. The experiment in a line: Activation (phosphorylation) of MAP kinase by Western immunoblotting in cultured cerebral cortex nerve cells. The experiment is classed as cell-based, rat. The arrangement: pMAPK/MAPK: unit not given here. Conditions: for Ratio of pMAPK to MAPK: Test Example 6, relative to control (0 μg/mL = 1.0). The procedure:
With regard to the compound 1 ((E)-2-(dimethylamino)-ethyl dec-2-enoate), activation of MAP kinase was measured as follows by a Western immunoblotting.
Nerve cells were dispersed from cerebral cortex of a fetal rat of 17 days age and said nerve cells were cultured for one day in a Dulbecco-modified Eagle medium (DMEM) containing 5% fetal bovine serum. The culture medium was exchanged with a serum-free medium (B27 supplement-added Neurobasal; Invitrogen) and the nerve cells were cultured at the density of 20,000 to 40,000 cells per cm^2 in a culture dish coated with polyornithine.
After three days, the compound 1 was added and the culture was continued for 30 minutes. After that, the cells were recovered on ice using a solution containing a phosphatase inhibitor where Tris-HCl buffer was a base. Protein concentration of the resulting cell extract was quantified using a BCA Protein Assay Kit (Takara Bio KK) and a certine amount of protein (3 μg for the measurement of MAP kinase and 5 μg for the measurement of phosphorylated MAP kinase) was subjected to polyacrylamide gel electrophoresis. The protein was transcribed from the gel after the electrophoresis to a PVDF membrane and a Western immunoblotting was carried out using each of an anti-MAP kinase antibody (Cell Signaling Technology) and an anti-phosphorylated MAP kinase antibody (Cell Signaling Technology) of the primary antibody.
After that, the reaction with an alkaline phosphatase-labeled anti-rabbit IgG antibody (Promega) of the secondary antibody was carried out so that the enzymatic activity was colorized whereupon the MAP kinase and the phosphorylated MAP kinase were measured.
Incidentally, the compound 1 was adjusted to the concentrations of 10 μg/ml, 30 μg/ml, 100 μg/ml and 300 μg/ml by dissolving in 0.1% DMSO. With regard to the control, 0.1% DMSO was added.
Intensity of the concentration of the above-obtained band of the gel subjected to electrophoresis was calculated and quantified using Image J (K. K. Bioarts). The numerical value for the MAP kinase using the compound 1 was divided by the numerical value for the MAP kinase of the control and, further, the numerical value for the phosphorylated MAP kinase using the compound 1 was divided by the numerical value for the phosphorylated MAP kinase of the control whereupon the ratio of the MAP kinase using the compound 1 to the control and the ratio of the phosphorylated kinase using the compound 1 to the control were determined.
After that, the resulting ratio of the phosphorylated MAP kinase to the control was divided by the resulting ratio of the MAP kinase to the control to determine the ratio of the phosphorylated MAP kinase to the MAP kinase (cf. Table 5). In Table 5, “MAPK” means a MAP kinase and “pMAPK” means a phosphorylated MAP kinase. “10”, “30”, “100” and “300” in Table 5 show the examples where 10 μg/ml, 30 μg/ml, 100 μg/ml and 300 μg/ml of the compound 1 were added.
MAP kinase and phosphorylated MAP kinase were measured for the compound 6 ((E)-2-(diethylamino)ethyl dec-2-enoate) and the compound 13 ((E)-2-(2-(diethylamino)ethoxy)ethyl dec-2-enoate) by the same method as in Test Example 1.
Each of the compounds 6 and 13 was dissolved in 0.1% DMSO to adjust to the concentration of 250 μg/ml. With regard to the control, 0.1% DMSO was added. With regard to the concentration of the resulting band of the gel subjected to electrophoresis, its intensity was calculated by the same method as in Test Example 1 using Image J (K. K. Bioarts) and the ratio of the phosphorylated MAP kinase to the control was divided by the resulting ratio of the MAP kinase to the control whereupon the ratio of the phosphorylated MAP kinase to the MAP kinase was determined (cf. Table 6).
With regard to the compound of the present invention, its activation for MAP kinase was measured by the same manner as in Test Example 1.
Each compound was dissolved in 0.1% DMSO to adjust to the concentrations of 30 μg/ml, 60 μg/ml, 125 μg/ml and 250 μg/ml. […]
For orientation: In western blotting, separated proteins are transferred to a membrane and probed.

In experiment [1] the test system is chronic mild stress-induced depressive model mice. In words: Elevated plus maze test in chronic mild stress-induced depressive model mice. The experiment is classed as in vivo. The conditions noted are these: 1,500 μg/kg orally once daily for three weeks; control 25.37±4.13 seconds. How it is done: The same operation as in the above Test Example 7 was conducted to prepare chronic mild stress-induced depressive model mice (n=8 to 12). During that time, the compound of the present invention dissolved in PBS or in a PBS solvent containing DMSO, etc. was orally administered once daily for three weeks and, after that, the suppressive effect for anxiety symptom was evaluated by means of an elevated plus maze test. Thus, time when the mouse stayed in an open arm of the elevated plus maze and the frequency (motility amount) of coming in and out of the mouse for both open arm and closed arm were measured. When the anxiety symptom was stronger, the staying time in the open arm was shorter. At that time, it is confirmed that there is no difference in the frequencies for coming in and out the arm between the cases where the stress is and is not loaded. Incidentally, the test for significance was carried out by a one-way ANOVA, Tukey's Multiple Comparison Test.

Experiment [2] relates to disablement model rats with hemi-transection of spinal cord. In words: Improvement in motor function (BBB scale) in rats with hemi-transection of spinal cord. The experiment is classed as in vivo. How it is done:
Female Wistar rats of seven weeks age (body weight: 120 to 140 g) were anesthetized with pentobarbital (40 mg/kg), thoracic vertebrae were detached to expose the thoracic cord and the left half thereof was cut at the position of the tenth thoracic cord using a sharp razor. After that, the muscle and the skin were satured to prepare disablement model rats with hemi-transection of spinal cord.
The compound of the present invention was dissolved in PBS or in a PBS solvent containing DMSO, etc. and orally administered once daily for 21 to 31 days.
With regard to the group administered with the compound of the present invention (n=3 to 6) and the control group (n=3 to 6), the improvement in motor function of the disablement model rats with hemi-transection of spinal cord was evaluated by a BBB scale (Basso D M, et al., J. Neurotrauma 12:1-21 (1995). Thus, evaluation of motor function was conducted for hind limbs of rats in such respects that whether the joint moves, whether body weight is applied onto the foot, whether walking is done, etc. wherein the movement of the hind limbs was divided into 21 points from no motility to normal state. Incidentally, the test for significance was conducted by a two-way ANOVA, Bonferroni Post test.

Where [3] appears, read: 10 μg/ml, 30 minutes, fetal rat cerebral cortex nerve cells.
Setting [4] is: 30 μg/ml, 30 minutes, fetal rat cerebral cortex nerve cells.
Where [5] appears, read: 100 μg/ml, 30 minutes, fetal rat cerebral cortex nerve cells.

On to `CCCCCCC/C=C/C(=O)SCCN(C)C` [Compound 55, (E)-S-2-(dimethylamino)ethyl dec-2-enethioate], for which the “Ratio of pMAPK to MAPK” value in the experiment on MAP kinase (30 μg/mL) came to 4.6; in the experiment with MAP kinase (60 μg/mL), 8.6; in the experiment with MAP kinase (125 μg/mL), 16.0. Also, the “staying time in an open arm (elevated plus maze)” value in experiment [1] came to 47.24 ± 7.52 s. For the same molecule, the BBB score stood at 12.3 in experiment [2] (500 μg/kg orally once daily, after fourteen days, control 8.5) and 5.3 in experiment [2] (500 μg/kg orally once daily, after seven days, control 1.8).
With `CCCCCCC/C=C/C(=O)NCCN(CC)CC` [Compound 37, (E)-N-2-(diethylamino)ethyl dec-2-enamide], the “Ratio of pMAPK to MAPK” value with MAP kinase (60 μg/mL) is 3.4; in the experiment with MAP kinase (125 μg/mL), 3.4; with MAP kinase (250 μg/mL), 4.9.
On to `CCCCCCC/C=C/C(=O)OCCN(CC)CC` [Compound 6, (E)-2-(diethylamino)ethyl dec-2-enoate], for which the pMAPK/MAPK/Control in the experiment with MAP kinase (250 μg/ml, Test Example 2, control = 1.00) was 1.72. The “staying time in an open arm (elevated plus maze)” value in experiment [1] was 53.57 ± 7.00 s. For the same molecule, the BBB score in experiment [2] (100 μg/kg orally once daily, after nine days, control 3.5) amounted to 8.3.
Turning to `CCCCCCC/C=C/C(=O)NCCN(C)C` [Compound 36, (E)-N-2-(dimethylamino)ethyl dec-2-enamide], the “Ratio of pMAPK to MAPK” value is reported as 1.6 with MAP kinase (30 μg/mL), 5.1 in the experiment on MAP kinase (60 μg/mL) and 0.5 with MAP kinase (125 μg/mL). In addition, the BBB score in experiment [2] (500 μg/kg orally once daily, after fifteen days, control 9.8) came to 12.3.
As for `CCCCCCC/C=C/C(=O)OCCN(C)C` [Compound 1, (E)-2-(dimethylamino)ethyl dec-2-enoate], the pMAPK/MAPK with MAP kinase (setting [3]) was determined as 674; with MAP kinase (setting [4]), 1071; in the experiment with MAP kinase (setting [5]) it was 1043; with MAP kinase (300 μg/ml, 30 minutes, fetal rat cerebral cortex nerve cells) it was 2234. In addition, the pMAPK/MAPK/Control in the experiment with MAP kinase (setting [3]) stood at 1.38; in the experiment with MAP kinase (setting [4]), 2.20; in the experiment on MAP kinase (setting [5]), 2.14.
